Results from US8642609B2, “Modulators of ATP-binding cassette transporters” (Vertex Pharmaceuticals Incorporated, priority 2003, dated 2014).

Target: T1, ΔF508-CFTR (Homo sapiens, UniProt P13569, DEL508-508)
T1 construct: expressed in transfected cells
Assay: Membrane potential optical assay (FRET/VIPR), identification of correction compounds
Format: cell-based
Settings: for Emax: relative efficacy
Excerpt: I) Membrane Potential Optical Methods for Assaying ΔF508-CFTR Modulation Properties of Compounds
The optical membrane potential assay utilized voltage-sensitive FRET sensors described by Gonzalez and Tsien (See, Gonzalez, J. E. and R. Y. Tsien (1995) “Voltage sensing by fluorescence resonance energy transfer in single cells” Biophys J 69(4): 1272-80, and Gonzalez, J. E. and R. Y. Tsien (1997) “Improved indicators of cell membrane potential that use fluorescence resonance energy transfer” Chem Biol 4(4): 269-77) in combination with instrumentation for measuring fluorescence changes such as the Voltage/Ion Probe Reader (VIPR) (See, Gonzalez, J. E., K. Oades, et al. (1999) “Cell-based assays and instrumentation for screening ion-channel targets” Drug Discov Today 4(9): 431-439).
These voltage sensitive assays are based on the change in fluorescence resonant energy transfer (FRET) between the membrane-soluble, voltage-sensitive dye, DiSBAC2(3), and a fluorescent phospholipid, CC2-DMPE, which is attached to the outer leaflet of the plasma membrane and acts as a FRET donor. Changes in membrane potential (Vm) cause the negatively charged DiSBAC2(3) to redistribute across the plasma membrane and the amount of energy transfer from CC2-DMPE changes accordingly. The changes in fluorescence emission were monitored using VIPR™ II, which is an integrated liquid handler and fluorescent detector designed to conduct cell-based screens in 96- or 384-well microtiter plates.
Identification of Correction Compounds
To identify small molecules that correct the trafficking defect associated with ΔF508-CFTR; a single-addition HTS assay format was developed. The cells were incubated in serum-free medium for 16 hrs at 37° C. in the presence or absence (negative control) of test compound. As a positive control, cells plated in 384-well plates were incubated for 16 hrs at 27° C. to “temperature-correct” ΔF508-CFTR. The cells were subsequently rinsed 3× with Krebs Ringers solution and loaded with the voltage-sensitive dyes. To activate ΔF508-CFTR, 10 μM forskolin and the CFTR potentiator, genistein (20 μM), were added along with Cl^−-free medium to each well. The addition of Cl^−-free medium promoted Cl^− efflux in response to ΔF508-CFTR activation and the resulting membrane depolarization was optically monitored using the FRET-based voltage-sensor dyes.
NIH3T3 mouse fibroblasts stably expressing ΔF508-CFTR are used for optical measurements of membrane potential. The cells are maintained at 37° C. in 5% CO2 and 90% humidity in Dulbecco's modified Eagle's medium supplemented with 2 mM glutamine, 10% fetal bovine serum, 1×NEAA, β-ME, 1× pen/strep, and 25 mM HEPES in 175 cm^2 culture flasks. For all optical assays, the cells were seeded at 30,000/well in 384-well matrigel-coated plates and cultured for 2 hrs at 37° C. before culturing at 27° C. for 24 hrs. for the potentiator assay. For the correction assays, the cells are cultured at 27° C. or 37° C. with and without compounds for 16-24 hours B) Electrophysiological Assays for assaying ΔF508-CFTR modulation properties of compounds

T1 sequence (P13569 with tags, fused parts or gaps DEL508-508): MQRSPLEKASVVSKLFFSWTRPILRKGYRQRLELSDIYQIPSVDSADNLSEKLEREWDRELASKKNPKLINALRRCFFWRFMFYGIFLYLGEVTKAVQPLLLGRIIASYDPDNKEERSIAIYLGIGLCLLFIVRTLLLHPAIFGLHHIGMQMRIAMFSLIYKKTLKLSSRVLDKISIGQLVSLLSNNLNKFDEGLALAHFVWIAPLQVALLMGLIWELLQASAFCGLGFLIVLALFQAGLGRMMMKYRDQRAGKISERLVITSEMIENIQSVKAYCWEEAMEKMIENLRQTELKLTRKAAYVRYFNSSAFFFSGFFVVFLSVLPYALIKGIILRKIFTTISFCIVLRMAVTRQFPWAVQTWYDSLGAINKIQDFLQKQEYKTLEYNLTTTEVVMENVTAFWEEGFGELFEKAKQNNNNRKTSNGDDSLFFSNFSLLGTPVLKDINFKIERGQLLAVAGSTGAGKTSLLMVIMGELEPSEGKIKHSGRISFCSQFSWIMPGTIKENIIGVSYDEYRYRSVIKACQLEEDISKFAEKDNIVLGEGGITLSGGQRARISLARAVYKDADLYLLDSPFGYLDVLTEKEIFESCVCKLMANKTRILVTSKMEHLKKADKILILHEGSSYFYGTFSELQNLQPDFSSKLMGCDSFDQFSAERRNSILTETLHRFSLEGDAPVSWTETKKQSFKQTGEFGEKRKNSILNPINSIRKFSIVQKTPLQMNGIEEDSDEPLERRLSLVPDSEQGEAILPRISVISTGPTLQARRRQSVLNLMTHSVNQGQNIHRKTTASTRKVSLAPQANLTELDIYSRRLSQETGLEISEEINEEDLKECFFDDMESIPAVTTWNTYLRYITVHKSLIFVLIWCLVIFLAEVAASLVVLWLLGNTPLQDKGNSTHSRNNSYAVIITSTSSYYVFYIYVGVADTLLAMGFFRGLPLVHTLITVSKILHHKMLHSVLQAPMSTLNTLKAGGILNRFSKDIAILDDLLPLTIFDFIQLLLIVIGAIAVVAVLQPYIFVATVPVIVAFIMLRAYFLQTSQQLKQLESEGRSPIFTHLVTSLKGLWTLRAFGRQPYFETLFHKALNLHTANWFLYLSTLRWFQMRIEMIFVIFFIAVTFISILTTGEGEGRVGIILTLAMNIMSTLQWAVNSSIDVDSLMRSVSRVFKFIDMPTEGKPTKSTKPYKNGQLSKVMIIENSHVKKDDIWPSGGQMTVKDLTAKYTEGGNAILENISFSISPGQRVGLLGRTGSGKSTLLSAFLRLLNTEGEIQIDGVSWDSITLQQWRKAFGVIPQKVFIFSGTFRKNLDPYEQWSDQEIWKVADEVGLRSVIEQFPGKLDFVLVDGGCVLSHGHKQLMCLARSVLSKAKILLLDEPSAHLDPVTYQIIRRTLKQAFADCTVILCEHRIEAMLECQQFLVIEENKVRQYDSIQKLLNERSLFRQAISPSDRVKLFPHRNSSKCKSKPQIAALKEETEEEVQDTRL

Row | Compound | EC50 [µM] | Emax [%]
1 | Cc1cccc(NC(=O)N2CCN(C(C)c3nc4ccc(Cl)cc4c(=O)n3C)CC2C)c1 (stereo not shown) [compound 1] | 25 to 60 | 25 to 100
2 | CC(c1nc2ccc(Cl)cc2c(=O)n1C)N1CCN(C(=O)Nc2ccccc2Br)C(C)C1 (stereo not shown) [compound 2] | 25 to 60 | 25 to 100
3 | CC(c1nc2ccc(Cl)cc2c(=O)n1C)N1CCN(C(=O)Nc2ccc(F)cc2F)C(C)C1 (stereo not shown) [compound 3] | 25 to 60 | < 25
4 | COCCn1c(C(C)N2CCN(S(=O)(=O)c3ccc(OC)cc3)CC2)nc2ccccc2c1=O (stereo not shown) [compound 4] | 10 to 25 | 25 to 100
5 | COCCn1c(C(C)N2CCN(S(=O)(=O)c3ccc(Br)cc3)CC2)nc2ccccc2c1=O (stereo not shown) [compound 5] | < 10 | > 100
6 | COc1ccc(S(=O)(=O)N2CCN(C(C)c3nc4ccccc4c(=O)n3C)CC2)cc1 (stereo not shown) [compound 6] | 10 to 25 | 25 to 100
7 | CC(c1nc2ccccc2c(=O)n1C)N1CCN(S(=O)(=O)c2cccc(C(F)(F)F)c2)CC1 (stereo not shown) [compound 7] | 10 to 25 | 25 to 100
8 | COc1ccc(NC(=O)N2CCN(C(C)c3nc4ccccc4c(=O)n3C)CC2)c(OC)c1 (stereo not shown) [compound 8] | 25 to 60 | < 25
9 | CC(c1nc2ccccc2c(=O)n1C)N1CCN(S(=O)(=O)c2ccc(Cl)cc2)CC1 (stereo not shown) [compound 9] | 10 to 25 | > 100
10 | CC(c1nc2ccccc2c(=O)n1C)N1CCN(S(=O)(=O)c2ccc(F)cc2)CC1 (stereo not shown) [compound 10] | 25 to 60 | 25 to 100
11 | Cc1ccc(S(=O)(=O)N2CCN(C(C)c3nc4ccccc4c(=O)n3C)CC2)cc1 (stereo not shown) [compound 11] | 10 to 25 | 25 to 100
12 | CC(c1nc2ccccc2c(=O)n1C)N1CCN(S(=O)(=O)c2cccc3ccccc23)CC1 (stereo not shown) [compound 12] | 10 to 25 | 25 to 100
13 | CC(c1nc2ccccc2c(=O)n1C)N1CCN(S(=O)(=O)c2ccc(C(C)(C)C)cc2)CC1 (stereo not shown) [compound 13] | 25 to 60 | < 25
14 | COc1cc(C(=O)N2CCN(C(C)c3nc4ccc(Cl)cc4c(=O)n3C)CC2)cc(OC)c1OC (stereo not shown) [compound 14] | 25 to 60 | < 25
15 | Cc1ccccc1C(=O)N1CCN(C(C)c2nc3ccc(Cl)cc3c(=O)n2C)CC1 (stereo not shown) [compound 15] | 10 to 25 | 25 to 100
16 | CCCCC(=O)N1CCN(C(C)c2nc3ccc(Cl)cc3c(=O)n2C)CC1 (stereo not shown) [compound 16] | 25 to 60 | < 25
17 | CC(c1nc2ccc(Cl)cc2c(=O)n1C)N1CCN(C(=O)c2ccc(Br)cc2)CC1 (stereo not shown) [compound 17] | 10 to 25 | 25 to 100
18 | CC(c1nc2ccc(Cl)cc2c(=O)n1C)N1CCN(C(=O)Nc2ccc(Cl)cc2)CC1 (stereo not shown) [compound 18] | 10 to 25 | 25 to 100
19 | CCCn1c(C(C)N2CCN(S(=O)(=O)c3ccccc3)CC2)nc2ccccc2c1=O (stereo not shown) [compound 19] | 10 to 25 | 25 to 100
20 | CCCn1c(C(C)N2CCN(S(=O)(=O)c3ccc(Cl)c([N+](=O)[O-])c3)CC2)nc2ccccc2c1=O (stereo not shown) [compound 20] | 25 to 60 | < 25
21 | CCCn1c(C(C)N2CCN(S(=O)(=O)c3c(C)cc(C)cc3C)CC2)nc2ccccc2c1=O (stereo not shown) [compound 21] | 25 to 60 | 25 to 100
22 | CCCn1c(C(C)N2CCN(S(=O)(=O)c3ccc(OC)cc3)CC2)nc2ccccc2c1=O (stereo not shown) [compound 22] | < 10 | > 100
23 | CCCn1c(C(C)N2CCN(C(=O)Nc3cccc(C#N)c3)CC2)nc2ccccc2c1=O (stereo not shown) [compound 23] | 25 to 60 | 25 to 100
24 | CCCn1c(C(C)N2CCN(C(=O)Nc3ccc(F)cc3F)CC2)nc2ccccc2c1=O (stereo not shown) [compound 24] | 25 to 60 | 25 to 100
25 | CCCn1c(C(C)N2CCN(C(=O)Nc3ccc(OC)cc3OC)CC2)nc2ccccc2c1=O (stereo not shown) [compound 25] | 25 to 60 | < 25
26 | CCCn1c(C(C)N2CCN(S(=O)(=O)c3ccc(Cl)cc3)CC2)nc2ccccc2c1=O (stereo not shown) [compound 26] | < 10 | > 100
27 | CCCn1c(C(C)N2CCN(S(=O)(=O)c3ccc(Br)cc3)CC2)nc2ccccc2c1=O (stereo not shown) [compound 27] | < 10 | > 100

Row | Compound | EC50 [µM] | Emax [%]
28 | CCCn1c(C(C)N2CCN(S(=O)(=O)c3ccc(F)cc3)CC2)nc2ccccc2c1=O (stereo not shown) [compound 28] | 10 to 25 | 25 to 100
29 | CCCn1c(C(C)N2CCN(S(=O)(=O)c3ccc(C)cc3)CC2)nc2ccccc2c1=O (stereo not shown) [compound 29] | 10 to 25 | > 100
30 | CCCn1c(C(C)N2CCN(C(=O)c3ccc4ccccc4c3)CC2)nc2ccccc2c1=O (stereo not shown) [compound 30] | 25 to 60 | 25 to 100
31 | CC(c1nc2ccccc2c(=O)n1C)N1CCN(C(=O)Nc2ccccc2)CC1 (stereo not shown) [compound 31] | 10 to 25 | < 25
32 | Cc1ccccc1C(=O)N1CCN(C(C)c2nc3ccccc3c(=O)n2C)CC1 (stereo not shown) [compound 32] | < 10 | < 25
33 | CC(c1nc2ccccc2c(=O)n1C)N1CCN(C(=O)Nc2ccc(Cl)cc2)CC1 (stereo not shown) [compound 33] | 25 to 60 | 25 to 100
34 | CCn1c(C(C)N2CCN(S(=O)(=O)c3ccc(Cl)c([N+](=O)[O-])c3)CC2)nc2ccc(Cl)cc2c1=O (stereo not shown) [compound 34] | 25 to 60 | < 25
35 | CCn1c(C(C)N2CCN(S(=O)(=O)c3cccc4ccccc34)CC2)nc2ccc(Cl)cc2c1=O (stereo not shown) [compound 35] | < 10 | 25 to 100
36 | CCn1c(C(C)N2CCN(S(=O)(=O)c3ccc(C)cc3)CC2)nc2ccc(Cl)cc2c1=O (stereo not shown) [compound 36] | 25 to 60 | 25 to 100
37 | CCn1c(C(C)N2CCN(S(=O)(=O)c3ccccc3)CC2)nc2ccc(Cl)cc2c1=O (stereo not shown) [compound 37] | 10 to 25 | 25 to 100
38 | CC(c1nc2ccc(Cl)cc2c(=O)n1C)N1CCN(C(=O)c2ccccc2)CC1 (stereo not shown) [compound 38] | 25 to 60 | < 25
39 | CC(c1nc2ccc(Cl)cc2c(=O)n1C)N1CCN(C(=O)c2ccccc2Cl)CC1 (stereo not shown) [compound 39] | 25 to 60 | 25 to 100
40 | CC(c1nc2ccc(Cl)cc2c(=O)n1C)N1CCN(C(=O)c2ccc(Cl)cc2)CC1 (stereo not shown) [compound 40] | 10 to 25 | 25 to 100
41 | Cc1ccc(S(=O)(=O)N2CCN(C(C)c3nc4ccc(Cl)cc4c(=O)n3C)CC2)cc1 (stereo not shown) [compound 41] | 25 to 60 | < 25
42 | CC(c1nc2ccc(Cl)cc2c(=O)n1C)N1CCN(S(=O)(=O)c2ccc(Br)cc2)CC1 (stereo not shown) [compound 42] | < 10 | 25 to 100
43 | CC(c1nc2ccc(Cl)cc2c(=O)n1C)N1CCN(C(=O)Nc2ccccc2)CC1 (stereo not shown) [compound 43] | 25 to 60 | < 25
44 | CC(c1nc2ccc(Cl)cc2c(=O)n1C)N1CCN(c2ccc(Cl)cc2)CC1 (stereo not shown) [compound 44] | < 10 | 25 to 100
45 | Cc1ccc(NC(=O)N2CCN(C(C)c3nc4ccc(Cl)cc4c(=O)n3C)CC2)cc1 (stereo not shown) [compound 45] | 25 to 60 | 25 to 100
46 | CCCn1c(C(C)N2CCN(C(=O)CSc3ccccc3)CC2)nc2ccccc2c1=O (stereo not shown) [compound 46] | 25 to 60 | 25 to 100
47 | CCCn1c(C(C)N2CCN(S(=O)(=O)c3ccc4ccccc4c3)CC2)nc2ccccc2c1=O (stereo not shown) [compound 47] | < 10 | 25 to 100
48 | Cc1cccc(S(=O)(=O)N2CCN(C(C)c3nc4ccccc4c(=O)n3C)CC2)c1 (stereo not shown) [compound 48] | 25 to 60 | 25 to 100
49 | COc1ccc(S(=O)(=O)N2CCN(C(C)c3nc4ccccc4c(=O)n3C)CC2)cc1OC (stereo not shown) [compound 49] | 25 to 60 | < 25
50 | CC(c1nc2ccccc2c(=O)n1C)N1CCN(S(=O)(=O)c2ccc(OC(F)(F)F)cc2)CC1 (stereo not shown) [compound 50] | 10 to 25 | 25 to 100
51 | CC(c1nc2ccccc2c(=O)n1C)N1CCN(S(=O)(=O)c2ccc(Br)cc2)CC1 (stereo not shown) [compound 51] | 10 to 25 | > 100
52 | CC(c1nc2ccccc2c(=O)n1C)N1CCN(C(=O)c2ccccc2)CC1 (stereo not shown) [compound 52] | 10 to 25 | < 25
53 | CC(c1nc2ccccc2c(=O)n1C)N1CCN(C(=O)c2ccc(Cl)cc2)CC1 (stereo not shown) [compound 53] | 25 to 60 | 25 to 100
